Values joined by “and” are separate entries in the source; they are usually repeats but may differ in a detail not shown here. Equal entries are not always repeated. Where two headings read alike, the source gives them in different places.
Key:
Akt2 [1] = molecular target: T1, Akt2 (Homo sapiens, UniProt P31751); experiment: Cellular thermal shift assay (CETSA) in PANC1 cells; assay type: cell-based; parameters: purchased Thermo Fisher Scientific #PV3184; conditions: for tAkt2 %: CETSA PANC1, 1 µM
Description: (§1) Cells were seeded into 100 mm tissue culture plates (Sarstedt) (PANC1: 10^6 cells). After 24 h incubation, cells were treated with 1 µM of inhibitors or DMSO and were incubated for 4.5 h. Cells were washed twice with ice-cold PBS and then suspended in 1 mL PBS. Cells were collected and separated into equal volumes (100 µL). The aliquots were treated individually with different temperatures for 3 min, followed by a 3 min incubation at room temperature. Cell lysis was initiated by adding 100 µL RIPA buffer and 2 freeze-thaw cycles in liquid nitrogen. The lysates were centrifuged at 21,130×g for 20 min at room temperature. The supernatants were transferred into fresh, pre-cooled microcentrifuge tubes, and analyzed by western blot analysis as described above.

Akt2 [2] = molecular target: T1, Akt2; experiment: STK HTRF KinEASE activity-based assay (IC50)
pAkt2 = experiment: Western blot analysis, PANC1 cells; assay type: cell-based, human; conditions: PANC1, 24-h treatment
Description: Cells were seeded into six-well tissue culture plates (Sarstedt) (BaF3 myr-Akt1/2/3: 10^6 cells/well, PANC1: 250.000 cells/well). […] Cell lysis was initiated by addition of 100 μL RIPA buffer (Cell Signaling Technology) per well supplemented with phosphatase and protease inhibitor cocktails (Sigma) followed by incubation on ice for 20 min. Cells were then harvested by scraping (PANC1) or centrifugation (BaF3). Whole cell lysates were cleared by centrifugation at 14,000×g/4 °C for 10 min and transferred into fresh, pre-cooled microcentrifuge tubes. Protein concentrations were determined using the Pierce BCA protein assay (Thermo) as per manufacturer’s instructions. Equal amounts of protein were separated by SDS-PAGE and transferred to Immobilon-FL PVDF membranes (Merck Millipore) using Pierce™ 1-step transfer buffer (Thermo) and the Pierce™ Power Blotter (Thermo). Membranes were washed for 5 min with ddH2O, blocked with Intercept®Blocking Buffer TBS (Li-Cor) for 1 h at room temperature, and then incubated with primary antibodies diluted in Intercept®Blocking Buffer TBS overnight at 4 °C with gentle agitation. On the next day, the membranes were washed three times with TBS-T (50 mM Tris, 150 mM NaCl, 0.05 % Tween 20, pH 7.4) for 5 min before being incubated with secondary antibodies diluted in Intercept®Blocking Buffer TBS for 1 h at room temperature with gentle agitation. Finally, the membranes were washed three times for 5 min with TBS-T and then scanned using an Odyssey®CLx imaging system (Li-Cor).

Akt1 [3] = molecular target: T2, Akt1 (Homo sapiens, UniProt P31749); experiment: STK HTRF KinEASE activity-based assay (IC50)
Akt3 [4] = molecular target: T3, Akt3 (Homo sapiens, UniProt Q9Y243); experiment: Cellular thermal shift assay (CETSA) in PANC1 cells; assay type: cell-based; parameters: purchased ProQinase #1578-0000-1; conditions: CETSA PANC1, 1 µM
Description: as §1

Ba/F3^myr-Akt3 cells = experiment: CellTiter-Glo cell viability assay; conditions: for cell viability: CTG
[5] = CellTiter-Glo cell viability assay; assay type: cell-based, murine; conditions: mouse, parental Ba/F3 cells, CTG, parental, single replicates
parental Ba/F3 cells = experiment: CellTiter-Glo cell viability assay; assay type: cell-based, murine; conditions: for cell viability: CTG, parental
Ba/F3^myr-Akt2 cells = experiment: CellTiter-Glo cell viability assay; conditions: for cell viability: CTG
Akt3 [6] = molecular target: T3, Akt3; experiment: STK HTRF KinEASE activity-based assay (IC50)
Ba/F3^myr-Akt1 cells = experiment: CellTiter-Glo cell viability assay; conditions: for cell viability: CTG
Akt1 [7] = molecular target: T2, Akt1; experiment: Cellular thermal shift assay (CETSA) in PANC1 cells; assay type: cell-based; parameters: purchased ProQinase #1379-0000-2; conditions: CETSA PANC1, 1 µM
Description: as §1

[8] = cell viability assay Ba/F3 myr-Akt cells, log units

T1 sequence (P31751 whole entry): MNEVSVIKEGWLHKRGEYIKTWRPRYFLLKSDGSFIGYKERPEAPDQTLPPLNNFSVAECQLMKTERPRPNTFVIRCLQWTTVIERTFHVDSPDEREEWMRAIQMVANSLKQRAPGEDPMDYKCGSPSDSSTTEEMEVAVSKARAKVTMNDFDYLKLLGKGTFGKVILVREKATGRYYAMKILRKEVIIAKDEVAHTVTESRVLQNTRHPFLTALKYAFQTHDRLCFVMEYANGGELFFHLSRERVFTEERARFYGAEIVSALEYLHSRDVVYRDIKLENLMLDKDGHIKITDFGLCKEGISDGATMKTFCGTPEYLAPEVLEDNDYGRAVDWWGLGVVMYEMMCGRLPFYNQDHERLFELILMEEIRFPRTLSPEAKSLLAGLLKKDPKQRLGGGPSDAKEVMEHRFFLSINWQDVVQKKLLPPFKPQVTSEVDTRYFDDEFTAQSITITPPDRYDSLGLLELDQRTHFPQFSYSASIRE
T3 sequence (Q9Y243 whole entry): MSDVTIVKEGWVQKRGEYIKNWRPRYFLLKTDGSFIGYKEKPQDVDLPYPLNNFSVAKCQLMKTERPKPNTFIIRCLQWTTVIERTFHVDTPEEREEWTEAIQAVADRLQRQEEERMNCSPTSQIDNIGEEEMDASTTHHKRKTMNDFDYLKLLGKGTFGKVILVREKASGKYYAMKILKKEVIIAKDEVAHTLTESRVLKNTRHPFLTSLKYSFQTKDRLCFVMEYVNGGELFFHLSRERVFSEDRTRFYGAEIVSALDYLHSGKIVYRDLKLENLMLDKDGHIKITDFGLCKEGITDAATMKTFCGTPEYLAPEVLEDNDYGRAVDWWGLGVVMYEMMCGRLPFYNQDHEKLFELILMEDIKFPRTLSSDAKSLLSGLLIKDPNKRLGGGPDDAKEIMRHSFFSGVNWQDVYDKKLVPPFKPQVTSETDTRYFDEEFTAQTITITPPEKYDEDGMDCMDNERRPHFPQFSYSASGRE
T2 sequence (P31749 whole entry): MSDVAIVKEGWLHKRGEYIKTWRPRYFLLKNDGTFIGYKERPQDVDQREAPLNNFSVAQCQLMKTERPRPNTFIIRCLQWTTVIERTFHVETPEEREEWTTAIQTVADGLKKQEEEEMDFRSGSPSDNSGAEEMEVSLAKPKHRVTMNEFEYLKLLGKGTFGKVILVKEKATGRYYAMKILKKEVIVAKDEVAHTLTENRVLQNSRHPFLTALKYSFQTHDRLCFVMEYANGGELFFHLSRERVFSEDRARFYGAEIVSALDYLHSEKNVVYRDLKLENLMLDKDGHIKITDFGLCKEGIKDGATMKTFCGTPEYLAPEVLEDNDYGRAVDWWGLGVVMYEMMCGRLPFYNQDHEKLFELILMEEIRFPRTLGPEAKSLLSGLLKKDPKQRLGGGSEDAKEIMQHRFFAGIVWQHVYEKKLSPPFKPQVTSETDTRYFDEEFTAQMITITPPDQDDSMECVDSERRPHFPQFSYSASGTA

C=CC(=O)Nc1ccc2[nH]c(=O)n(C3CCN(Cc4ccc(-c5ncc(Cc6cn[nH]c6)cc5-c5ccccc5)cc4)CC3)c2c1 [compound 14]
tAkt2 % (Akt2 [1]; temperature 39.9): 100.00% | tAkt2 % (Akt2 [1]; temperature 43.5): 102.39% | tAkt2 % (Akt2 [1]; temperature 48.4): 91.99% | tAkt2 % (Akt2 [1]; temperature 53.8): 80.16% | tAkt2 % (Akt2 [1]; temperature 58.1): 72.88% | tAkt2 % (Akt2 [1]; temperature 61.4): 43.24% | tAkt2 % (Akt2 [1]; temperature 65.6): 13.13% | tAkt2 % (Akt2 [1]; temperature 70.9): 8.83% | tAkt2 % (Akt2 [1]; temperature 76): 2.38% | tAkt2 % (Akt2 [1]; temperature 79.9): 0.00% | thermal stabilization of Akt2 (CETSA, in words) (Akt2 [1]; PANC1, 1 µM): significant thermal stabilization of Akt2 | IC50 (Akt2 [2]; HTRF IC50 Akt2, Mean, mean of replicates): 23.9 nM | IC50 (Akt2 [2]; HTRF IC50 Akt2, individual determinations, single replicates): 21.3 nM and 30 nM and 19.2 nM and 20.5 nM | IC50 (Akt2 [2]; IC50 Akt2, HTRF, ATP at KM, 1 h preincubation): 23 ± 4 nM | pAkt2 level (immunoblot) (pAkt2): efficient downregulation of Akt2 phosphorylation | IC50 (Akt1 [3]; HTRF IC50 Akt1, Mean, mean of replicates): 527 nM | IC50 (Akt1 [3]; HTRF IC50 Akt1, individual determinations, single replicates): 543 nM and 509 nM and 531 nM | IC50 (Akt1 [3]; IC50 Akt1, HTRF, ATP at KM, 1 h preincubation): 527 ± 14 nM | Log ratio IC50 [Akt] / IC50 [Akt], Akt1 / Akt2 (Akt1 [3]; biochemical activity based assay, log units): 1.35 | tAkt3 % (Akt3 [4]; temperature 39.9): 100.00% | tAkt3 % (Akt3 [4]; temperature 43.5): 108.88% | tAkt3 % (Akt3 [4]; temperature 48.4): 31.40% | tAkt3 % (Akt3 [4]; temperature 53.8): 28.60% | tAkt3 % (Akt3 [4]; temperature 58.1): 24.86% | tAkt3 % (Akt3 [4]; temperature 61.4): 22.71% | tAkt3 % (Akt3 [4]; temperature 65.6): 8.41% | tAkt3 % (Akt3 [4]; temperature 70.9): 4.62% | tAkt3 % (Akt3 [4]; temperature 76): 1.45% | tAkt3 % (Akt3 [4]; temperature 79.9): 0.00% | cell viability (Ba/F3^myr-Akt3 cells; myr-Akt3, 0.1 nM, single replicates, 0.0001 µM): 114.7 % of control and 87.0 % of control and 100.0 % of control | cell viability (Ba/F3^myr-Akt3 cells; myr-Akt3, 5000 nM, single replicates, 5 µM): 35.1 % of control and 52.3 % of control and 67.7 % of control | EC50 (Ba/F3^myr-Akt3 cells; Mus musculus, read-out: CTG BaF3myr-Akt3, Mean, mean of replicates): 4470 nM | EC50 (Ba/F3^myr-Akt3 cells; Mus musculus, read-out: CTG BaF3myr-Akt3, individual determinations, single replicates): 4320 nM | Log ratio EC50 [Akt] / EC50 [Akt], Akt3 / Akt2 (Ba/F3^myr-Akt3 cells; [8]): -0.93 | EC50 (Ba/F3^myr-Akt3 cells; read-out: CTG BaF3myr-Akt3, individual determinations, single replicates): 4620 nM and 4470 nM | viability at 3 days, 0.0001 µM ([5]; 0.1 nM, read-out: cell viability): 101% | viability at 3 days, 5 µM ([5]; 5000 nM): 105% | cell viability (parental Ba/F3 cells; 0.1 nM, single replicates, 0.0001 µM): 100.0 % of control and 99.0 % of control | cell viability (parental Ba/F3 cells; 5000 nM, single replicates, 5 µM): 99.0 % of control and 97.0 % of control | EC50 (parental Ba/F3 cells; Mus musculus, BaF3, parental cells, mean of replicates, read-out: CTG BaF3, Mean): 8640 nM | EC50 (parental Ba/F3 cells; Mus musculus, BaF3, parental cells, single replicates, read-out: CTG BaF3, individual determinations): 8400 nM | EC50 (parental Ba/F3 cells; parental cells, single replicates, read-out: CTG BaF3, individual determinations): 7670 nM and 9860 nM | cell viability (Ba/F3^myr-Akt2 cells; myr-Akt2, 0.1 nM, single replicates, 0.0001 µM): 101.1 % of control and 98.7 % of control | cell viability (Ba/F3^myr-Akt2 cells; myr-Akt2, 5000 nM, single replicates, 5 µM): 0.2 % of control and 0.55 % of control and 2.5 % of control | EC50 (Ba/F3^myr-Akt2 cells; Mus musculus, read-out: CTG BaF3myr-Akt2, Mean, mean of replicates): 529 nM | viability at 0.0001 µM (Ba/F3^myr-Akt2 cells; Mus musculus, read-out: cell viability, CTG, myr-Akt2, 0.1 nM, single replicates): 104% | EC50 (Ba/F3^myr-Akt2 cells; read-out: CTG BaF3myr-Akt2, individual determinations, single replicates): 932 nM and 277 nM and 378 nM | IC50 (Akt3 [6]; HTRF IC50 Akt3, Mean, mean of replicates): 356 nM | IC50 (Akt3 [6]; HTRF IC50 Akt3, individual determinations, single replicates): 231 nM and 426 nM and 410 nM | IC50 (Akt3 [6]; IC50 Akt3, HTRF, ATP at KM, 1 h preincubation): 356 ± 88 nM | cell viability (Ba/F3^myr-Akt1 cells; myr-Akt1, 0.1 nM, single replicates, 0.0001 µM): 103.7 % of control and 102.7 % of control | cell viability (Ba/F3^myr-Akt1 cells; myr-Akt1, 5000 nM, single replicates, 5 µM): 79.7 % of control and 82.2 % of control | EC50 (Ba/F3^myr-Akt1 cells; Mus musculus, read-out: CTG BaF3myr-Akt1, Mean, mean of replicates): 7560 nM | EC50 (Ba/F3^myr-Akt1 cells; Mus musculus, read-out: CTG BaF3myr-Akt1, individual determinations, single replicates): 6920 nM | viability at 0.0001 µM (Ba/F3^myr-Akt1 cells; Mus musculus, read-out: cell viability, CTG, myr-Akt1, 0.1 nM, single replicates): 100% | viability at 5 µM (Ba/F3^myr-Akt1 cells; Mus musculus, read-out: cell viability, CTG, myr-Akt1, 5000 nM, single replicates): 71.9% | Log ratio EC50 [Akt] / EC50 [Akt], Akt1 / Akt2 (Ba/F3^myr-Akt1 cells; [8]): 1.15 | EC50 (Ba/F3^myr-Akt1 cells; read-out: CTG BaF3myr-Akt1, individual determinations, single replicates): 7890 nM and 7860 nM | tAkt1 % (Akt1 [7]; temperature 39.9): 100.00% | tAkt1 % (Akt1 [7]; temperature 43.5): 52.07% | tAkt1 % (Akt1 [7]; temperature 48.4): 40.09% | tAkt1 % (Akt1 [7]; temperature 53.8): 35.60% | tAkt1 % (Akt1 [7]; temperature 58.1): 20.87% | tAkt1 % (Akt1 [7]; temperature 61.4): 22.87% | tAkt1 % (Akt1 [7]; temperature 65.6): 16.43% | tAkt1 % (Akt1 [7]; temperature 70.9): 3.87% | tAkt1 % (Akt1 [7]; temperature 76): 1.25% | tAkt1 % (Akt1 [7]; temperature 79.9): 0.00%

Reference: article PMC8421423, “Cellular model system to dissect the isoform-selectivity of Akt inhibitors” (Nature Communications, 2021)
